Here are results for one compound from patent US8877773B2, “Methods for treating chronic obstructive pulmonary disease” (Indiana University Research and Technology Corporation, priority 2009, dated 2014).

In one series the test system is control rats. As to the kind of experiment: Baseline behavior and cardiovascular activity in control rats. Type of series: in vivo, rat. The following applies: control rats (no 1-AG or NaLac), 30 mg/kg i.p., 30 min following injection. The procedure:
(§1) In experiments 4-6, rats were made panic vulnerable with 1-AG. 5 days after 1-AG onset, in a counterbalanced design, rats received intraperitoneal (i.p.) injections of treatment drug or vehicle 30 min prior to i.v. infusions. […] In experiment 5, baseline in an open field (OF) behavior test of anxiety was assessed (n=8) prior to 1-AG infusions. […] Immediately following the NaLac challenge, rats were placed in the OF test. […] In experiment 6,1-AG treated rats received an injection of an alternative ORX1 receptor antagonist (30 mg/kg SB408124 (N-(6,8-Difluoro-2-methyl-4-quinolinyl)-N′-(4-(dimethylamino)phenyl)urea), Tocris, in 0.2 ml/100 g volume DMSO, n=4) or vehicle (0.2 ml/100 g volume DMSO, n=6) 30 min prior to NaLac. In experiment 7, control rats (no 1-AG or NaLac treatment) were assessed in a SI test.
Adult male Sprague-Dawley rats were anesthetized and surgically implanted with telemetrical probes to measure cardiovascular activity prior to and during lactate infusions. […] 1960, Tocris, in 0.2 ml/100 g volume DMSO, n=7] or vehicle (0.2 ml/100 g volume DMSO, n=7). Cardiovascular activity and SI tests were monitored 30 min following injection at similar time points.

The subject of series [1] is panic-prone (1-AG treated) rats. Briefly: Sodium lactate (NaLac) challenge in panic-prone rats: radio-telemetry of locomotor and cardiovascular (HR, MAP) responses. In kind it is in vivo, rat. The procedure: Telemetry probes (Data Science International, St. Paul Minn.) were surgically implanted into the abdomen of anaesthetize rats to measure locomotor responses. Cardiovascular responses were measured by a femoral arterial line connected to the telemetric probe which contained a pressure transducer (Data Science International, St. Paul Minn.).
The minipump was then sutured into place subcutaneously at the nape of the neck. The concentration of the solutions was such that 3.5 nmol/[…] per hour of 1-AG or d-AG was infused continuously into the DMH/PeF region for the remainder of the given experiment. In the case of the siRNA experiments specialized T-cannulae were implanted permitting access to a removable 28 g injector to direct siRNA injections to the same location as the 1-AG infusions. Additionally these rats had guide cannulae directed to the opposite DMH/PeF for bilateral infusion of siRNA.
Rats received intravenous (i.v.) infusions (10 ml over 15 min of either 0.5M NaLac or 0.9% isotonic saline (when applicable)) using a syringe pump at least five days following the initiation of 1-AG or d-AG infusions. Once a stable baseline was achieved, i.v. infusions began and cardiovascular and activity data were recorded for 15 min (similar to clinical NaLac infusions).
Cardiovascular responses (i.e., MAP and HR) were measured by a femoral arterial line connected to a telemetric probe which contained a pressure transducer (Cat. no. C50-PXT, Data Science International (DSI) St. Paul Minn.). […] MAP and HR were recorded continuously in freely moving conscious rats and are expressed as a 20 min time course. The data reported are changes in HR and MAP from the average of the baseline (t−5 to t−1) from each rat. […]
as §1
Adult male Sprague-Dawley rats were anesthetized and surgically implanted with telemetrical probes to measure cardiovascular activity prior to and during lactate infusions. After a 3 day recovery, rats were anaesthetized and had osmotic minipumps (previously filled with 1-AG) stereotaxically implanted unilaterally into the DMH. […] 1960, Tocris, in 0.2 ml/100 g volume DMSO, n=12], alprazolam (3 mg/kg, Sigma, in 0.2 ml/100 g volume DMSO, n=6) or vehicle (0.2 ml/100 g volume DMSO, n=11) 30 min prior lactate challenge.

For series [2] the following is noted: in vivo; cited from earlier work.
The subject of series [3] is panic-prone (1-AG treated) rats. As to the kind of experiment: Defensive burying (defensive shock) test after NaLac challenge in panic-prone rats. Type of series: in vivo, rat. To be noted: 1-AG+NaLac rats. How it is done: The defensive burying test is a validated test of experimental anxiety and defensive-like behavior in rats. For four consecutive days before defensive burying test (days 3, 4, 5 and 6 post 1-AG onset), rats were acclimated to the testing apparatus by placing them for 10 min in the testing cage (a polycarbonate rat housing cage, 30.5 cm width×30.5 cm height×61 cm length) with 2.5 cm of bedding covering the floor and a small hole centered on a short dimension of the cage 2.5 cm above the bedding to accommodate the deactivated shock probe. The shock probe was 1 cm in diameter and extended 6 cm into the cage. Along the entire length of the exposed probe, 2 un-insulated wires were wrapped in parallel (not touching) so that the rat could not touch the probe without getting a shock. […] The shock intensity was set at 0.7 mA for the entire duration of testing so that the rat received a shock whenever the prod was contacted with its forepaws or snout. […] Behavioral assessments were made using software (ODLog Macropod Software for Windows, version 2.5.2) with different keystrokes coupled to each defensive behavior to accurately measure incidence and duration of each. The repertoire of behavioral reactions during a defensive burying test is well delineated and catalogued in rats. These behaviors include: 1) burying behavior, defined as duration spent pushing, shoveling, flicking and digging sawdust towards and around the prod with rapid movements of the snout and forepaws; 2) Freezing, defined as immobility with the body motionless; 3) probe exploration, defined as time spent on half of cage with probe; 4) rearing, defined as raising the body on the hind limbs in a vertical position; 5) ambulations, defined as number of times rat crossed from side of cage with probe to other; and also 5) grooming, defined as face washing, scratching, tail biting and licking of the body.
On day 1 adult male Sprague-Dawley rats (n=3/group) were anaesthetized and had osmotic minipumps (previously filled with 1-AG) stereotaxically implanted unilaterally into the DMH/PeF. […] Behavioral assessments were made using software (ODLog Macropod Software for Windows, version 2.5.2) with different keystrokes coupled to each defensive behavior to accurately measure incidence and duration of each.

The mark [4] stands for this setting: 30 mg/kg i.p., experiment 5 (open field cohort).
[5] abbreviates: i.p. 30 min prior to NaLac, SB334867/SB408124 30 mg/kg, alprazolam 3 mg/kg, experiments 4 and 6.

Entries after “also recorded” stand apart in the source; their conditions may differ.

Take `Cc1nc2ccc(NC(=O)Nc3ccnc4cccnc34)cc2o1` [SB334867, N-(2-Methyl-6-benzoxazolyl)-N′-1,5-naphthyridin-4-yl urea]: in the series on control rats, the “HR in control rats” value was “had no effect; also recorded: does not alter; also recorded: did not alter” and the “MAP in control rats” value was “had no effect; also recorded: does not alter; also recorded: did not alter”. In addition, in series [1] (setting [4]), the “NaLac induced increases in heart rate (HR)” value is “attenuated” and the “NaLac induced increases in mean arterial blood pressure (MAP)” value is “attenuated”. Also, in series [1] (setting [5]), the “NaLac induced increases in heart rate (HR)” value is listed as “attenuated; also recorded: blocked” and the “NaLac induced increases in mean arterial blood pressure (MAP)” value is given as “attenuated; also recorded: blocked”. The blood-brain barrier passage entry in series [2] is “crosses the blood-brain barrier”. In series [3] (30 mg/kg i.p.), the “grooming in defensive burying test” value is given as “No differences were detected”, the “rearing in defensive burying test” value is “No differences were detected” and the “time spent near probe in defensive burying test” value is reported as “No differences were detected”. For the same compound, the “NaLac-induced freezing (immobility) in defensive burying test” value in series [3] (30 mg/kg i.p. 30 min prior, 30 mg/kg) was “completely blocked; also recorded: blocks”. Moreover, the “number of times crossed line dividing halves of test cage (mid-line crossings)” value in series [3] (30 mg/kg i.p., sedation indicator, 30 mg/kg) is “No differences were detected”.
